System: T1, LpUGT95
T1 construct: cloned from cDNA into pMAL-c2x (MBP fusion vector), expressed in E. coli, purified recombinant
Experiment: UPLC product formation, Hyper […] fit
Type: biochemical, Lysionotus pauciflorus
Details: 2 mM UDP-glucose as sugar donor, 10 mM DTT, 50 mM Tris-HCl pH 7.4, 30 °C, 30 min

Q: How did the Km turn out when COc1ccc(-c2cc(=O)c3c(O)c(OC)c(O)c(OC)c3o2)cc1 [nevadensin, 5,7-dihydroxy-6,8,4'-trimethoxyflavone] was run?
A: Its Km is 596 µM.

From PMC9484059, “Integrated multi-omics analysis and microbial recombinant protein system reveal hydroxylation and glycosylation involving nevadensin biosynthesis in Lysionotus pauciflorus” (Microbial Cell Factories, 2022)
